Measurements: PubChem BioAssay AID330 (DTP/NCI, 2004)
Values joined by “and” are separate entries in the source; they are usually repeats but may differ in a detail not shown here. Equal values may be shown once. Inconclusive results and toxic doses are left out.

Test system: P388 leukemia ip, CD2F1 mice, survival T/C
Assay: NCI In Vivo Anticancer Drug Screen. Data for tumor model P388 Leukemia (intraperitoneal) in CD2F1 (CDF1) mice
Details: endpoint: median survival time, higher = longer survival
Procedure, shortened: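 Mice carrying the transplanted tumor received test compound or vehicle. Survival was recorded in each group, and the value is the treated-group measurement divided by that of the vehicle-treated control group.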

[1] = dose: 50.0 mg/kg/injection, schedule: Q01DX009 (ip), vehicle: saline
[2] = dose: 100.0 mg/kg/injection, schedule: Q01DX009 (ip), vehicle: saline
[3] = dose: 25.0 mg/kg/injection, schedule: Q01DX009 (ip), vehicle: saline

## CN(c1ccccc1)S(=O)(=O)c1ccc2ccccc2c1O
dose: 100.0 mg/kg/injection, schedule: Q01DX001 (ip), vehicle: saline with Tween-80
  T/C: 101 % of control
dose: 200.0 mg/kg/injection, schedule: Q01DX001 (ip), vehicle: saline with Tween-80
  T/C: 100 % of control
dose: 400.0 mg/kg/injection, schedule: Q01DX001 (ip), vehicle: saline with Tween-80
  T/C: 91 % of control

## O=C1C2=C(Nc3cc([N+](=O)[O-])ccc3N2)OC1c1ccccc1Cl (stereo not drawn)
dose: 60.0 mg/kg/injection, schedule: Q01DX005 (ip), vehicle: Klucel (hydroxypropylcellulose) (HPC)
  T/C: 102 % of control
dose: 120.0 mg/kg/injection, schedule: Q01DX005 (ip), vehicle: Klucel (hydroxypropylcellulose) (HPC)
  T/C: 98 % of control
dose: 240.0 mg/kg/injection, schedule: Q01DX005 (ip), vehicle: Klucel (hydroxypropylcellulose) (HPC)
  T/C: 98 % of control

## O=C1CCCc2ccc([N+](=O)[O-])cc21
dose: 25.0 mg/kg/injection, schedule: Q01DX009 (ip), vehicle: suspension in saline
  T/C: 98 % of control
dose: 50.0 mg/kg/injection, schedule: Q01DX009 (ip), vehicle: suspension in saline
  T/C: 98 % of control
dose: 100.0 mg/kg/injection, schedule: Q01DX009 (ip), vehicle: suspension in saline
  T/C: 93 % of control
dose: 200.0 mg/kg/injection, schedule: Q01DX009 (ip), vehicle: suspension in saline
  T/C: 93 % of control

## CC(Nc1cccc(Cl)c1)S(=O)(=O)O (stereo not drawn)
[1]
  T/C: 100 % of control
[2]
  T/C: 100 % of control
dose: 200.0 mg/kg/injection, schedule: Q01DX009 (ip), vehicle: saline
  T/C: 94 % of control

## Cc1cc2cc3c4c(nn5cnnc5c4c2o1)-c1ccccc1CC3
dose: 50.0 mg/kg/injection, schedule: Q01DX005 (ip), vehicle: Klucel (hydroxypropylcellulose) (HPC)
  T/C: 101 % of control
dose: 100.0 mg/kg/injection, schedule: Q01DX005 (ip), vehicle: Klucel (hydroxypropylcellulose) (HPC)
  T/C: 104 % of control
dose: 200.0 mg/kg/injection, schedule: Q01DX005 (ip), vehicle: Klucel (hydroxypropylcellulose) (HPC)
  T/C: 98 % of control

## O=Nc1c2cc3ccccc3[nH]c-2c2ccccc12
dose: 50.0 mg/kg/injection, schedule: Q01DX005 (ip), vehicle: saline with Tween-80
  T/C: 101 % of control
dose: 100.0 mg/kg/injection, schedule: Q01DX005 (ip), vehicle: saline with Tween-80
  T/C: 93 % of control
dose: 200.0 mg/kg/injection, schedule: Q01DX005 (ip), vehicle: saline with Tween-80
  T/C: 97 % of control

## CCOC(=O)C1=C(Nc2ccc(Br)cc2)C(=O)N(CC)C1
dose: 60.0 mg/kg/injection, schedule: Q01DX005 (ip), vehicle: saline with Tween-80
  T/C: 109 % of control
dose: 120.0 mg/kg/injection, schedule: Q01DX005 (ip), vehicle: saline with Tween-80
  T/C: 100 % of control
dose: 240.0 mg/kg/injection, schedule: Q01DX005 (ip), vehicle: saline with Tween-80
  T/C: 106 % of control

## COc1ccc(NN=O)nc1Br
dose: 3.12 mg/kg/injection, schedule: Q01DX009 (ip), vehicle: saline
  T/C: 108 % of control
dose: 6.25 mg/kg/injection, schedule: Q01DX009 (ip), vehicle: saline
  T/C: 108 % of control
dose: 12.5 mg/kg/injection, schedule: Q01DX009 (ip), vehicle: saline
  T/C: 108 % of control and 109 % of control
[3]
  T/C: 110 % of control and 120 % of control
[2]
  T/C: 157 % of control

## [Co].[NH-]CC[NH-].[NH-]CC[NH-].[NH-]CC[NH-]
[3]
  T/C: 100 % of control
[1]
  T/C: 111 % of control
dose: 50.0 mg/kg/injection, schedule: Q04DX002 (ip), vehicle: saline with Tween-80
  T/C: 100 % of control
[2]
  T/C: 105 % of control
dose: 100.0 mg/kg/injection, schedule: Q04DX002 (ip), vehicle: saline with Tween-80
  T/C: 102 % of control
dose: 200.0 mg/kg/injection, schedule: Q04DX002 (ip), vehicle: saline with Tween-80
  T/C: 106 % of control

## C=CC1CN2CCC1CC2C(O)c1ccnc2ccccc12 (stereo not drawn)
dose: 60.0 mg/kg/injection, schedule: Q01DX005 (ip), vehicle: saline
  T/C: 98 % of control
dose: 120.0 mg/kg/injection, schedule: Q01DX005 (ip), vehicle: saline
  T/C: 98 % of control

## NC(CCC(=O)NCCCC(=O)O)C(=O)O (stereo not drawn)
dose: 100.0 mg/kg/injection, schedule: Q04DX002 (ip), vehicle: saline
  T/C: 105 % of control
dose: 200.0 mg/kg/injection, schedule: Q04DX002 (ip), vehicle: saline
  T/C: 113 % of control
dose: 400.0 mg/kg/injection, schedule: Q04DX002 (ip), vehicle: saline
  T/C: 108 % of control
